Measured values: US8735414B2 (priority 2009, dated 2014)

Experiments:
[1] = system: bicistronic HCV replicon (replicon RNA, GenBank Accession No. AJ242654); experiment: HCV Replicon Assay; format: cell-based; settings: Hepatitis C virus, 72 h, read-out: Replicon IC50

SMILES | IC50 [1] [nM] | melting point [°C]
C[C@H](NS(=O)(=O)c1ccc(-c2c(C#N)c3ccc(OC(F)F)cc3n2-c2ccccc2)nc1)C(F)(F)F [compound 553, 6-[3-cyano-6-(difluoromethoxy)-1-phenyl-1H-indol-2-yl]-N-[(2S)-1,1,1-trifluoropropan-2-yl]pyridine-3-sulfonamide] | < 500 | 209 to 211
C[C@@H](NS(=O)(=O)c1ccc(-c2c(C#N)c3ccc(OC(F)F)cc3n2-c2ccccc2)nc1)C(F)(F)F [compound 554, 6-[3-cyano-6-(difluoromethoxy)-1-phenyl-1H-indol-2-yl]-N-[(2R)-1,1,1-trifluoropropan-2-yl]pyridine-3-sulfonamide] | < 500 | 212 to 213
Cc1c(F)cc2c(c1F)c(C#N)c(-c1ccc(S(=O)(=O)N[C@@H](C)C(F)(F)F)cn1)n2C1CCC1 [compound 555, 6-(3-cyano-1-cyclobutyl-4,6-difluoro-5-methyl-1H-indol-2-yl)-N-[(2S)-1,1,1-trifluoropropan-2-yl]pyridine-3-sulfonamide] | < 500 | 181 to 186
Cc1c(F)cc2c(c1F)c(C#N)c(-c1ccc(S(=O)(=O)NC(CF)CF)cn1)n2C1CCC1 [compound 556, 6-(3-cyano-1-cyclobutyl-4,6-difluoro-5-methyl-1H-indol-2-yl)-N-(1,3-difluoropropan-2-yl)pyridine-3-sulfonamide] | < 500 | 207 to 212
Cc1ccc2c(C#N)c(-c3ncc(S(=O)(=O)NC(CF)CF)cn3)n(C3CCC3)c2c1F [compound 557, 2-(3-cyano-1-cyclobutyl-7-fluoro-6-methyl-1H-indol-2-yl)-N-(1,3-difluoropropan-2-yl)pyrimidine-5-sulfonamide] | < 500 | 191 to 198
Cc1c(F)cc2c(c1F)c(C#N)c(-c1ccc(S(=O)(=O)NC(CF)CF)cn1)n2C1CCCC1 [compound 558, 6-(3-cyano-1-cyclopentyl-4,6-difluoro-5-methyl-1H-indol-2-yl)-N-(1,3-difluoropropan-2-yl)pyridine-3-sulfonamide] | < 500 | 214 to 219
Cc1c(F)cc2c(c1F)c(C#N)c(-c1ccc(S(=O)(=O)N[C@@H](C)C(F)(F)F)cn1)n2C1CCCC1 [compound 559, 6-(3-cyano-1-cyclopentyl-4,6-difluoro-5-methyl-1H-indol-2-yl)-N-[(2S)-1,1,1-trifluoropropan-2-yl]pyridine-3-sulfonamide] | < 500 | 218 to 224
Cc1ccc2c(c1)c(C#N)c(-c1ccc(S(=O)(=O)N[C@@H](C)C(F)(F)F)cn1)n2C1CCCCC1 [compound 560, 6-(3-cyano-1-cyclohexyl-5-methyl-1H-indol-2-yl)-N-[(2S)-1,1,1-trifluoropropan-2-yl]pyridine-3-sulfonamide] | < 500 | 175 to 180
Cc1ccc2c(c1)c(C#N)c(-c1ncc(S(=O)(=O)N[C@@H](C)C3CC3)cn1)n2CC1CC1 [compound 561, 2-[3-cyano-1-(cyclopropylmethyl)-5-methyl-1H-indol-2-yl]-N-[(1S)-1-cyclopropylethyl]pyrimidine-5-sulfonamide] | 500 to 2000 | 174 to 178
Cc1ccc2c(c1)c(C#N)c(-c1ncc(S(=O)(=O)N[C@@H](C)C3CC3)cn1)n2C1CCCC1 [compound 562, 2-(3-cyano-1-cyclopentyl-5-methyl-1H-indol-2-yl)-N-[(1S)-1-cyclopropylethyl]pyrimidine-5-sulfonamide] | < 500 | 168 to 171
Cc1ccc2c(c1)c(C#N)c(-c1ncc(S(=O)(=O)N[C@@H](C)C3CC3)cn1)n2C(C)C [compound 563, 2-[3-cyano-5-methyl-1-(propan-2-yl)-1H-indol-2-yl]-N-[(1S)-1-cyclopropylethyl]pyrimidine-5-sulfonamide] | 500 to 2000 | 171 to 174
Cc1ccc2c(c1)c(C#N)c(-c1ccc(S(=O)(=O)N[C@@H](C)C3CC3)cn1)n2C(C)C [compound 564, 6-[3-cyano-5-methyl-1-(propan-2-yl)-1H-indol-2-yl]-N-[(1S)-1-cyclopropylethyl]pyridine-3-sulfonamide] | < 500 | 170 to 173
Cc1ccc2c(c1)c(C#N)c(-c1ncc(S(=O)(=O)NC(C)C)cn1)n2C(C)C [compound 565, 2-[3-cyano-5-methyl-1-(propan-2-yl)-1H-indol-2-yl]-N-(propan-2-yl)pyrimidine-5-sulfonamide] | < 500 | 175 to 177
Cc1ccc2c(c1)c(C#N)c(-c1ncc(S(=O)(=O)N[C@@H](C)C(F)(F)F)cn1)n2C(C)C [compound 566, 2-[3-cyano-5-methyl-1-(propan-2-yl)-1H-indol-2-yl]-N-[(2S)-1,1,1-trifluoropropan-2-yl]pyrimidine-5-sulfonamide] | 500 to 2000 | 195 to 198
Cc1ccc2c(c1)c(C#N)c(-c1ncc(S(=O)(=O)NC(CF)CF)cn1)n2C(C)C [compound 567, 2-[3-cyano-5-methyl-1-(propan-2-yl)-1H-indol-2-yl]-N-(1,3-difluoropropan-2-yl)pyrimidine-5-sulfonamide] | < 500 | 160 to 163
NC(=O)c1c(-c2ccc(S(N)(=O)=O)cn2)n(C2CCC2)c2cc(OC(F)F)ccc12 [compound 568, 1-cyclobutyl-6-(difluoromethoxy)-2-(5-sulfamoylpyridin-2-yl)-1H-indole-3-carboxamide] | 2000 to 5000 | 230 to 231
COc1ccc2c(c1)c(C#N)c(-c1ncc(S(=O)(=O)N[C@@H](C)C(F)(F)F)cn1)n2C1CCC1 [compound 569, 2-(3-cyano-1-cyclobutyl-5-methoxy-1H-indol-2-yl)-N-[(2S)-1,1,1-trifluoropropan-2-yl]pyrimidine-5-sulfonamide] | 500 to 2000 | 203 to 205
COc1ccc2c(c1)c(C#N)c(-c1ncc(S(=O)(=O)N[C@@H](C)C3CC3)cn1)n2C1CCC1 [compound 570, 2-(3-cyano-1-cyclobutyl-5-methoxy-1H-indol-2-yl)-N-[(1S)-1-cyclopropylethyl]pyrimidine-5-sulfonamide] | 500 to 2000 | 182 to 183
COc1ccc2c(c1)c(C#N)c(-c1ccc(S(=O)(=O)NC(CF)CF)cn1)n2C1CCCC1 [compound 571, 6-(3-cyano-1-cyclopentyl-5-methoxy-1H-indol-2-yl)-N-(1,3-difluoropropan-2-yl)pyridine-3-sulfonamide] | < 500 | 167 to 169
COc1ccc2c(c1)c(C#N)c(-c1ncc(S(=O)(=O)NC(CF)CF)cn1)n2C1CCCC1 [compound 572, 2-(3-cyano-1-cyclopentyl-5-methoxy-1H-indol-2-yl)-N-(1,3-difluoropropan-2-yl)pyrimidine-5-sulfonamide] | < 500 | 200 to 202
N#Cc1c(-c2ccc(S(=O)(=O)NC(CF)CF)cn2)n(C2CCCC2)c2cc(OC(F)F)c(F)cc12 [compound 573, 6-[3-cyano-1-cyclopentyl-6-(difluoromethoxy)-5-fluoro-1H-indol-2-yl]-N-(1,3-difluoropropan-2-yl)pyridine-3-sulfonamide] | < 500 | 190 to 194
